{"source": "patent US20170348306A1", "about": "“METHODS OF TREATING CANCER” (GLAXOSMITHKLINE LLC, priority 2011, published 2017)", "test_system": "H3K27me3 and EZH2 target genes in tumor xenografts", "assay": "Pharmacodynamic study in tumor xenografts (H3K27me3/H3 ELISA, qRT-PCR)", "assay_type": "in vivo, mice", "details": "10 days of once-daily (QD) dosing; dose-dependent", "method": "Following tissue homogenization, tumor tissue lysates were prepared using the Epigentek Histone Extraction kit (OP-0006). […] Cells were lysed with 0.2N HCl for 30 minutes to extract histones, the acid-insoluble portion was pelleted by centrifugation, and the supernatant was neutralized with neutralization buffer (1M Na2HPO4, pH 12.5; ActiveMotif) containing protease inhibitors (Roche). Lysates were added to Maxisorp ELISA plates (Nunc) in duplicate on each of two plates plus blocking buffer (1% BSA). […] Luminata Forte substrate (Millipore) was added 5 minutes before chemiluminescence was quantified with an EnVision multi-label plate reader (PerkinElmer). H3K27me3 levels were normalized to total H3 values and IC50 values were determined using a 4-parameter curve fit. […]\nAll studies were conducted after review by the Institutional Animal Care and Use Committee at GSK and in accordance with the GSK Policy on the Care, Welfare and Treatment of Laboratory Animals. […] Tumors were measured with calipers, block randomized according to tumor size into treatment groups. […] Mice were weighed and tumors measured with calipers twice weekly. […]"}
{"smiles": "CC[C@H](C)n1cc(C)c2c(C(=O)NCc3c(C)cc(C)[nH]c3=O)cc(-c3ccc(N4CCNCC4)nc3)cc21", "note": "[GSK126]", "values": [{"measurement": "gene expression in tumor xenografts", "value": "increased"}, {"measurement": "global H3K27me3 in tumor xenografts", "value": "decreased"}]}
